{
  "source": "ChEMBL document CHEMBL6078643",
  "about": "“Palladium-Mediated Bioorthogonal System for Prodrug Activation of N-Benzylbenzamide-Containing Tubulin Polymerization Inhibitors for the Treatment of Solid Tumors” (J Med Chem, 2024)",
  "key": {"[1]": {"experiment": "Antiproliferative activity against human THLE-2 cells assessed as reduction in cell viability incubated for 72 hrs by CCK-8 assay", "format": "toxicity, cell-based"}, "[2]": {"experiment": "Prodrug release in PBS buffer assessed as half release time of 5-fluoro-N-(3-hydroxy-4-methoxybenzyl)-2-morpholinobenzamide in presence of palladium resins at 75 uM by HPLC analysis", "format": "ADME"}, "[3]": {"system": "HepG2", "experiment": "Cytotoxicity against human HepG2 cell assessed as parent drug 5-fluoro-N-(3-hydroxy-4-methoxybenzyl)-2-morpholinobenzamide mediated decrease in cell viability at 100 nM in presence of palladium resins incubated for 72 hrs by CCK-8 assay", "format": "functional, cell-based"}, "[4]": {"system": "K562", "experiment": "Cytotoxicity against human K562 cells assessed as parent drug 5-fluoro-N-(3-hydroxy-4-methoxybenzyl)-2-morpholinobenzamide mediated decrease in cell viability at 100 nM in presence of palladium resins incubated for 72 hrs by CCK-8 assay", "format": "functional, cell-based"}, "[5]": {"system": "K562", "experiment": "Induction of cell cycle arrest in human K562 cells assessed as accumulation of cells at G1 phase at 80 nM incubated for 72 hrs in presence of palladium resins by PI staining based flow cytometric analysis ( Rvb = 77.46 %)", "format": "functional"}, "[6]": {"system": "K562", "experiment": "Induction of cell cycle arrest in human K562 cells assessed as accumulation of cells at G2 phase at 80 nM incubated for 72 hrs in presence of palladium resins by PI staining based flow cytometric analysis ( Rvb = 8.5 %)", "format": "functional"}, "[7]": {"system": "K562", "experiment": "Induction of cell cycle arrest in human K562 cells assessed as accumulation of cells at G1 phase at 80 nM incubated for 72 hrs by PI staining based flow cytometric analysis ( Rvb = 77.46 %)", "format": "functional"}, "[8]": {"system": "K562", "experiment": "Induction of cell cycle arrest in human K562 cells assessed as accumulation of cells at S phase at 80 nM incubated for 72 hrs by PI staining based flow cytometric analysis ( Rvb = 14.04 %)", "format": "functional"}, "[9]": {"system": "K562", "experiment": "Induction of apoptosis in human K562 cells assessed as nucleus fragmentation at 80 nM incubated for 72 hrs in presence of palladium resins by Hoechst 33342 staining based fluorescent microscopic analysis", "format": "functional, cell-based"}, "[10]": {"system": "K562", "experiment": "Induction of apoptosis in human K562 cells assessed as early apoptotic cells at 80 nM incubated for 72 hrs by Annexin V-APC staining based flow cytometric analysis (reference value: 2.78%)", "format": "functional"}, "[11]": {"system": "K562", "experiment": "Induction of apoptosis in human K562 cells assessed as necrotic cells at 80 nM incubated for 72 hrs by Annexin V-APC staining based flow cytometric analysis (reference value: 1.65%)", "format": "functional"}, "[12]": {"system": "K562", "experiment": "Induction of apoptosis in human K562 cells assessed as viable cells at 80 nM incubated for 72 hrs in presence of palladium resins by Annexin V-APC staining based flow cytometric analysis (reference value: 94.21%)", "format": "functional", "settings": "read-out: Activity"}, "[13]": {"system": "K562", "experiment": "Induction of apoptosis in human K562 cells assessed as necrotic cells at 80 nM incubated for 72 hrs in presence of palladium resins by Annexin V-APC staining based flow cytometric analysis (reference value: 1.65%)", "format": "functional"}, "[14]": {"target": "T1, Tubulin (Homo sapiens) (UniProt P68371+Q9H4B7+P0DPH7+P68366+Q13509+Q71U36+P04350+Q3ZCM7+P07437+P68363+Q9BQE3+Q6PEY2+Q13885+Q9BVA1+Q9BUF5)", "experiment": "Disruption of microtubule organization in human K562 cells assessed as appearance of slim microtubules at 80 nM incubated for 72 hrs by DAPI staining based confocal microscopic analysis", "format": "cell-based"}, "[15]": {"target": "T1, Tubulin (Homo sapiens)", "experiment": "Disruption of microtubule organization in human K562 cells assessed as appearance of fibrous microtubules at 80 nM incubated for 72 hrs by DAPI staining based confocal microscopic analysis", "format": "cell-based"}, "[16]": {"system": "K562", "experiment": "Antiproliferative activity against human K562 cells at 100 nM incubated for 72 hrs in presence of palladium resins by CCK-8 assay", "format": "functional, cell-based"}, "[17]": {"system": "HepG2", "experiment": "Antiproliferative activity against human HepG2 cells at 100 nM incubated for 72 hrs in presence of palladium resins by CCK-8 assay", "format": "functional, cell-based"}, "[18]": {"system": "Mitochondrial membrane", "experiment": "Induction of mitochondrial membrane potential loss in human K562 cells assessed as increase in green fluorescence intensity at 80 nM incubated for 72 hrs in presence of palladium resins by JC-1 staining based flow cytometric analysis (reference value: 6.74%)", "format": "cell membranes"}, "[19]": {"system": "Mitochondrial membrane", "experiment": "Induction of mitochondrial membrane potential loss in human K562 cells assessed as green fluorescence intensity incubated for 72 hrs by JC-1 staining based flow cytometric analysis (reference value: 6.74%)", "format": "cell membranes"}, "[20]": {"system": "K562", "experiment": "Induction of ROS generation in human K562 cells assessed as increase in DCF-positive cells at 80 nM incubated for 72 hrs in presence of palladium resins by DCF-DA staining based flow cytometric analysis (reference value: 7.67%)", "format": "functional"}, "[21]": {"system": "HUVEC", "experiment": "Antivascular activity against HUVEC cells assessed as inhibition of cell migration at 80 nM incubated for 24 hrs by phase contrast microscopic analysis", "format": "functional, cell-based", "settings": "Homo sapiens"}, "[22]": {"system": "HUVEC", "experiment": "Antivascular activity against HUVEC cells assessed as inhibition of cell migration at 80 nM incubated for 24 hrs in presence of palladium resins by phase contrast microscopic analysis", "format": "functional, cell-based", "settings": "Homo sapiens"}, "[23]": {"system": "HUVEC", "experiment": "Antivascular activity against HUVEC cells assessed as inhibition of capillary tube formation at 80 nM incubated for 6 hrs in presence of palladium resins by inverted microscopic analysis", "format": "functional, cell-based", "settings": "Homo sapiens"}, "[24]": {"target": "T1, Tubulin (Homo sapiens)", "experiment": "Inhibition of tubulin polymerization in human HepG2 cells assessed as decrease in alpha tubulin expression at 80 nM incubated for 24 hrs in presence of palladium resins by Western blotting analysis", "format": "cell-based"}, "[25]": {"target": "T1, Tubulin (Homo sapiens)", "experiment": "Inhibition of tubulin polymerization in human K562 cells assessed as decrease in beta tubulin expression at 80 nM incubated for 24 hrs in presence of palladium resins by Western blotting analysis", "format": "cell-based"}, "[26]": {"target": "T1, Tubulin (Homo sapiens)", "experiment": "Inhibition of tubulin polymerization in human K562 cells assessed as decrease in polymerized alpha tubulin level at 80 nM incubated for 24 hrs in presence of palladium resins by Western blotting analysis", "format": "cell-based"}, "[27]": {"experiment": "Toxicity in Balb/c mouse xenografted with human HepG2 cells assessed as change in body weight at 20 mg/kg, iv administered daily in presence of palladium resins for 14 days and measured every 2 days", "format": "organism-based", "settings": "in vivo, 336 h, time 14 day"}, "[28]": {"system": "HepG2", "experiment": "Antitumor activity against human HepG2 cells xenografted in Balb/c mouse assessed as cell necrosis at 20 mg/kg, iv administered daily for 14 days in presence of palladium resins by H and E staining based analysis", "format": "functional, organism-based", "settings": "time 14.0 day"}, "[29]": {"system": "HepG2", "experiment": "Antitumor activity against human HepG2 cells xenografted in Balb/c mouse assessed as cell necrosis at 20 mg/kg, iv administered daily for 14 days in presence of palladium resins by TUNEL staining based analysis", "format": "functional, organism-based", "settings": "time 14.0 day"}},
  "note": "Calls of active or inactive are those of the source. The rule behind the calls is not given here.",
  "data": [
    {"smiles": "C#CCOc1cc(CNC(=O)c2cc(F)ccc2N2CCOCC2)ccc1OC", "values": [
      {"measurement": "IC50 at 72 h", "setting": "[1]", "value": 1.42, "unit": "µM"},
      {"measurement": "t1/2", "setting": "[2]", "value": 7.2, "unit": "h"},
      {"measurement": "Activity", "setting": "[3]", "value": "Active"},
      {"measurement": "Activity", "setting": "[4]", "value": "Active"},
      {"measurement": "Activity", "setting": "[5]", "value": 58.6, "unit": "%"},
      {"measurement": "Activity", "setting": "[6]", "value": 12.3, "unit": "%"},
      {"measurement": "Activity", "setting": "[7]", "value": 67.39, "unit": "%"},
      {"measurement": "Activity", "setting": "[8]", "value": 23.64, "unit": "%"},
      {"measurement": "Activity", "setting": "[9]", "value": "Active"},
      {"measurement": "Activity", "setting": "[10]", "value": 4.26, "unit": "%"},
      {"measurement": "Activity", "setting": "[11]", "value": 1.26, "unit": "%"},
      {"measurement": "viability at 0.08 µM", "setting": "[12]", "value": 45.4, "unit": "%"},
      {"measurement": "Activity", "setting": "[13]", "value": 2.95, "unit": "%"},
      {"measurement": "Activity", "setting": "[14]", "value": "Active"},
      {"measurement": "Activity", "setting": "[15]", "value": "Active"},
      {"measurement": "Activity", "setting": "[16]", "value": "Active"},
      {"measurement": "Activity", "setting": "[17]", "value": "Active"},
      {"measurement": "Activity", "setting": "[18]", "value": 54.2, "unit": "%"},
      {"measurement": "Activity", "setting": "[19]", "value": 8.08, "unit": "%"},
      {"measurement": "Activity", "setting": "[20]", "value": 54.85, "unit": "%"},
      {"measurement": "Activity", "setting": "[21]", "value": "inactive"},
      {"measurement": "Activity", "setting": "[22]", "value": "Active"},
      {"measurement": "Activity", "setting": "[23]", "value": "Active"},
      {"measurement": "inhibition", "setting": "[24]", "value": "Active"},
      {"measurement": "inhibition", "setting": "[25]", "value": "Active"},
      {"measurement": "inhibition", "setting": "[26]", "value": "Active"},
      {"measurement": "Activity", "setting": "[27]", "value": "Non-toxic"},
      {"measurement": "Activity", "setting": "[28]", "value": "Active"},
      {"measurement": "Activity", "setting": "[29]", "value": "Active"}
    ]}
  ]
}
